Measurements as given in US20240293343A1, “Benzylideneaminoguanidine derivatives as NR2B-selective NMDA receptor antagonists and their therapeutic applications” (InFlectis BioScience, priority 2023, published 2024).
Where two headings read alike, the source gives them in different places.

Experiments:
[1] = target: T1, NMDAR (NR1A/NR2B) (Homo sapiens, UniProt Q05586+Q13224); assay: NMDAR (NR1A/NR2B) Human Glutamate Ion Channel Cell Based Antagonist Ca2+ Flux Assay; conditions: Hek293 cells expressing NMDAR subunit 1A/2B, FLIPR Tetra; read-out: IC50, antagonist activity on Ca^2+ flux
T1 construct: host or cells: HEK293
Method: Briefly, Hek293 cells stably transfected to express NMDAR subunit 1A/2B were seeded into 384-well microplates and incubated at 37° C. Cells were loaded with dye prior to testing. […] Cells were further incubated for 30-60 minutes at 37° C., and compound activity on calcium flux was measured on a FLIPR Tetra (MDS).

[2] = target: T2, glycine binding to the NMDAR NR1 subunit (Rattus norvegicus, UniProt P35439); assay: NMDAR radiolabeled ligand displacement assay, MDL-105,519; conditions: glycine site
T2 construct: tissue Eurofins 232910/233010/234000/SafetyScreen44 Panel

[3] = tested on: ion channel of the NMDAR; assay: NMDAR radiolabeled ligand displacement assay, MK-801; format: binding, rat; conditions: pore channel
[4] = tested on: glutamate binding to the NMDAR NR2 subunit; assay: NMDAR radiolabeled ligand displacement assay, CGP-39653; set-up: species or system rat; conditions: glutamate site
[5] = target: T3, Ifenprodil binding site on the NR2B subunit (Rattus norvegicus, UniProt P35439+Q00960); assay: NMDAR radiolabeled ligand displacement assay, Ifenprodil
T3 construct: tissue Eurofins 232910/233010/234000/SafetyScreen44 Panel; host or cells: rat cerebral cortex

[6] = tested on: sciatic nerve injury; assay: Mouse model of sciatic nerve injury (toe spreading, electromyography, histology); format: in vivo, mice (Swiss CD-1); conditions: 1.5 mg/kg once daily per os
Method: 6-week-old Swiss (CD-1) male mice were provided by Janvier Labs and housed in an animal facility in a day/night inversed cycle. […] Mice were anesthetized with ketamine chlorohydrate (100 mg/kg) and xylazine (10 mg/kg) and placed on a heating pad. Skin was incised and the sciatic nerve exposed at mid-thigh level and lesioned with fine forceps to ensure peripheral injury. The nerve was crushed twice with a haemostatic forceps (width 1.5 mm; Koenig, Strasbourg, France) with a 90-degree rotation between each crush. The skin incision was sutured, and mice were allowed to recover isolated until the end of anesthesia. The hind limb, contralateral to the lesion, served as uninjured control. Analgesia was induced prior surgery and the following days with bunepronorphine (0.1 mg/kg). […] The loss of nerve function recovered progressively over a 4-5 weeks period after mechanical insult.
At day 0, on day 7, and on day 14 and day 21 post-surgery, the functionality of the nerve fibers was determined with an electromyography apparatus (Dantec, Natus, France), on the ipsilateral side and contralateral side. […] The compound muscle action potential (CMAP) was measured: more precisely the amplitude (mV) and the latency (ms) of the action potential were recorded in gastrocnemius muscle after stimulation of the sciatic nerve. […]

[7] = human, cited from earlier work
[8] = tested on: NMDA-induced currents / cytosolic Ca^2+ load; conditions: Ruiz et al. 2020; cited from earlier work
[9] = solid and solution states; cited from earlier work
[10] = in vivo

T1 sequence (Q13224 27-1484, other chains not shown): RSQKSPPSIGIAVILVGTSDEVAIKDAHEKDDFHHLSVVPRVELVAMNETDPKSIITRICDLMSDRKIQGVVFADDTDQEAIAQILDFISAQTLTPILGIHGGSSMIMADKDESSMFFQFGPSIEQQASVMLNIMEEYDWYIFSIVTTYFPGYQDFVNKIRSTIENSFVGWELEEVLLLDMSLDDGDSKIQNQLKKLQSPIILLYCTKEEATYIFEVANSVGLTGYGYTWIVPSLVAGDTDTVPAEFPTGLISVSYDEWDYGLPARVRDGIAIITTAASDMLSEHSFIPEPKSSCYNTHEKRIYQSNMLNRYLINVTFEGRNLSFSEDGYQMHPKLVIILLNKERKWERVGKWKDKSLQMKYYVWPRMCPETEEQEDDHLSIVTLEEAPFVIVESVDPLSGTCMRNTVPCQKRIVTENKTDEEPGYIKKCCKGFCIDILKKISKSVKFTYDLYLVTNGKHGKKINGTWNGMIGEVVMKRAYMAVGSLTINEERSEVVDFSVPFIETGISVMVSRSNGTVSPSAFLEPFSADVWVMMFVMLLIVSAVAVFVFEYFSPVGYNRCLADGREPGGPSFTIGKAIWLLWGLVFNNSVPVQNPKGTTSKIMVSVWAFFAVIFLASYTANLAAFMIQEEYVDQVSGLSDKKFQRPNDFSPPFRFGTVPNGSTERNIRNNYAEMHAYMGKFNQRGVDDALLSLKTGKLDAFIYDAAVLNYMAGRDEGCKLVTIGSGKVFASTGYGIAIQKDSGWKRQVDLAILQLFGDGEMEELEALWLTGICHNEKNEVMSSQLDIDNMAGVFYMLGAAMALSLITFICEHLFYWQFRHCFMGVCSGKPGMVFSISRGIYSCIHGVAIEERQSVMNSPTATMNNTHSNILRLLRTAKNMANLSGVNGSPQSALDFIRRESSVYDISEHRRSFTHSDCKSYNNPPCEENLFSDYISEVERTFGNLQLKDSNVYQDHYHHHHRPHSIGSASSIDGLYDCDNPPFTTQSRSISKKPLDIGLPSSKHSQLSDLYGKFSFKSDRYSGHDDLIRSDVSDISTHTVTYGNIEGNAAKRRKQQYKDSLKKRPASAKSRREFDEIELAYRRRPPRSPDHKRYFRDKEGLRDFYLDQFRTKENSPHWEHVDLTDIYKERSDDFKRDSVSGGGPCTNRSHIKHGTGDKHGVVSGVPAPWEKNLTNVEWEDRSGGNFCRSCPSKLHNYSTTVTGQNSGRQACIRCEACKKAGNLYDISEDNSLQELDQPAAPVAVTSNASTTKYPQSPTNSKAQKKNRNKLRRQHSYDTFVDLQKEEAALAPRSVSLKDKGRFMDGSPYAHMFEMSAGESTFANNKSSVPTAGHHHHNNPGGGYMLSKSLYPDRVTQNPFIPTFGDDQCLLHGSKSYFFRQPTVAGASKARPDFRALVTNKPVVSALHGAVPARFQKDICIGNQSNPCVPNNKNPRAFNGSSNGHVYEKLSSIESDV
T3 sequence (Q00960 27-1482, other chains not shown): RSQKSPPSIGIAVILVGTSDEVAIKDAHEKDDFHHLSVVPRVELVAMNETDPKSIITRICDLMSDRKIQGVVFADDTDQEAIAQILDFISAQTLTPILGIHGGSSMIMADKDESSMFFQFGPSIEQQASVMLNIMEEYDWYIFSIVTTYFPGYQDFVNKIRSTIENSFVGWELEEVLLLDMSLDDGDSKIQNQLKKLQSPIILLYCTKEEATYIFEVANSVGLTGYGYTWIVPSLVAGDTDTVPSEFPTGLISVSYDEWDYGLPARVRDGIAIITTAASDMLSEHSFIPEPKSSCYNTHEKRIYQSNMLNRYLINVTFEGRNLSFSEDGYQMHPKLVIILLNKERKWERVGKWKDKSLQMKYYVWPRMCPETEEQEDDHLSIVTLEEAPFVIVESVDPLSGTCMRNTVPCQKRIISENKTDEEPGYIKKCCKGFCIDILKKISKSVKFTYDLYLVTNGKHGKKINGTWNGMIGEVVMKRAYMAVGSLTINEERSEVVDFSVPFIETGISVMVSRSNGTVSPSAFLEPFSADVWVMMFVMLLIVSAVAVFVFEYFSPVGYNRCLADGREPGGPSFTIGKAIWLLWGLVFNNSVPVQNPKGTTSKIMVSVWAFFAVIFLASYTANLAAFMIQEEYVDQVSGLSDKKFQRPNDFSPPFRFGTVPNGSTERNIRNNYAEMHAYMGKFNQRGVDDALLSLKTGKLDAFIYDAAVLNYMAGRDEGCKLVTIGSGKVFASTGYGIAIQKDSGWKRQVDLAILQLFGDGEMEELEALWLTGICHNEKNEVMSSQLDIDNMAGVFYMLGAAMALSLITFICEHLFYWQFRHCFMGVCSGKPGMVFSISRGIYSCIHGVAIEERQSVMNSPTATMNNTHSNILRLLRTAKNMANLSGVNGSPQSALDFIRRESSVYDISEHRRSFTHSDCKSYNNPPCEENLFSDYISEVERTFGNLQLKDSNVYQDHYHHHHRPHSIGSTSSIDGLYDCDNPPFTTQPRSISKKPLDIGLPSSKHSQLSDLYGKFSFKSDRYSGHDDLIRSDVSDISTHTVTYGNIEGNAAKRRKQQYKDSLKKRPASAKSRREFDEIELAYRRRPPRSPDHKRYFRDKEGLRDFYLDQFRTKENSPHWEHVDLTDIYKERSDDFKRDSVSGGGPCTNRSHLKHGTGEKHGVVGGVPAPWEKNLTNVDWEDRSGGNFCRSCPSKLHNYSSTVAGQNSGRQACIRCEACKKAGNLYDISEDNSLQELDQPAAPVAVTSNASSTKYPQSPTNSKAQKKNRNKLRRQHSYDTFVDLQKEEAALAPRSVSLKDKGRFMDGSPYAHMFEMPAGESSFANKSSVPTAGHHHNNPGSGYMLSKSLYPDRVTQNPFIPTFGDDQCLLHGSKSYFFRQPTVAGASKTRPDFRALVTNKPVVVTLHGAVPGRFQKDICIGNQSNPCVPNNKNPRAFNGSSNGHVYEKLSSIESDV

Structure (SMILES) | IC50 [1] | displacement of radiolabeled ligand MDL-105,519 [2] | displacement of radiolabeled ligand MK-801 [3] | displacement of radiolabeled ligand CGP-39653 [4] | IC50 [5] | also measured
N=C(N)N/N=C/c1ccc(F)cc1Cl [Compound 3, 2-(2-chloro-4-fluoro-benzylidene)hydrazine-carboximidamide] | 702 nM | unable to displace | unable to displace | unable to displace | 250 nM | recovery of toe spreading compared to control group [6]: faster; recovery of toe spreading, median time (printed median survival) ([6]; ipsilateral paw, vehicle usually after 10 days): 8 days
CC(=O)O.N=C(N)N/N=C/c1c(Cl)cccc1Cl [Compound 1, 2-(2,6-dichlorobenzylidene)hydrazine-carboximidamide acetate salt] | 625 nM | unable to displace | unable to displace | unable to displace | 400 nM | adverse events resembling those present in schizophrenia ([7]; controlled and open therapeutic trials): none of the adverse events seen with compound 1 (i.e. guanabenz) resembled those present in schizophrenia; cardiovascular side effects [7]: rare, apart from a decrease in heart rate; reported side effects [7]: drowsiness, dry mouth, dizziness and weakness; NMDA-induced currents [8]: reducing; NMDA-induced cytosolic Ca^2+ load [8]: reducing; spontaneous isomerization (E/Z) [9]: practically insignificant
N=C(N)N/N=C/c1ccc(O)cc1Cl [Compound 19, 2-(2-chloro-4-hydroxybenzylidene)hydrazine-carboximidamide] | – | – | – | – | – | adverse events resembling those present in schizophrenia ([10]; human): None of the adverse events seen with compound 2 and 19 resembled those present in schizophrenia; compound-related hypotension and dizziness ([10]; human): No clinically significant compound 2 and 19-related hypotension, and dizziness; metabolite status in human [10]: major human metabolite of compound 2
C[C@]12N[C@H](Cc3ccccc31)c1ccccc12 [MK-801] | 69 nM | – | – | – | – | –
